Reference: patent US9771327B2, “Compounds and methods for the treatment of cystic fibrosis” (FLATLEY DISCOVERY LAB, LLC, priority 2013, dated 2017)

Molecular target: T1, human ΔF508-CFTR (Homo sapiens, UniProt P13569, DEL508-508)
T1 construct: expressed in transfected cells
Experiment: CFTR-YFP high throughput assay, CFTR corrector protocol (YFP iodide flux quench)
Type: cell-based
Conditions: FRT cells expressing human ΔF508-CFTR and YFP-H148Q/I152L, 24-26 h incubation with compound; for Emax: normalized to the positive control, read-out: EMAX (% Efficacy, EMAX normalized to the positive control); for EC50: stimulated with 20 μM Forskolin & 30 μM P3
Description: Assays for Detecting and Measuring the Effect of Compounds on dF508-CFTR Channels CFRT-YFP High Throughput Assay-CFTR Corrector Protocol:
This protocol is designed to selectively screen small molecule compounds for F508del CFTR corrector activities in the HTS YFP flux assay. In this protocol, the cells are incubated with testing compounds for 24 hours, washed with PBS, stimulated with forskolin and a standard potentiator, and read on a 384-well HTS plate reader, such as the Hamamatsu FDDD-6000.
YFP fluorescence intensity is acquired at high speed before and after iodide buffer is injected to the assay cells. Iodide enters the cells via active CFTR channels in the plasma membrane, and quenches the YFP fluorescence. The rate of fluorescence quenching is proportionally related to the total CFTR activities in the cell membrane. dF508-CFTR corrector accelerates YFP quenching by increasing the number of CFTR molecules in the testing cell plasma membrane.
This method was initially developed for bench top plate readers (Galietta et al., 2001), and was adapted to the HTS format (Sui et al. Assay Drug Dev. Technol. 2010).
Fisher Rat Thyroid (FRT) cells stably expressing both human ΔF508-CFTR and a halide-sensitive yellow fluorescent protein (YFP-H148Q/I152L 25,22) (Galietta et al., Am. J. Physiol Cell Physiol, 281(5), C1734, 2001) were cultured on plastic surface in Coon's modified Ham's F12 medium supplemented with FBS 10%, L-glutamine 2 mM, penicillin 100 U/ml, and streptomycin 100 μg/ml. G418 (0.75-1.0 mg/ml) and zeocin (3.2 ug/ml) were used for selection of FRT cells expressing ΔF508-CFTR and YFP. For primary screening, FRT cells were plated into 384-well black wall, transparent bottom microtiter plates (Costar; Corning Inc.) at a cell density of 20,000-40,000 per well. Test compound was applied to the cells at varying concentrations ranging from 2 nM-[…] in either a 2-fold or 3-fold dilution series. Cells were incubated in a cell culture incubator at 37° C. with 5% CO2 for 24-26 h. Assay plates were washed with DPBS media (Thermo, cat #SH30028.02) to remove unbound cells and compound. Stimulation media (25 μL) containing 20 μM Forskolin & 30 μM P3 [6-(Ethyl-phenyl-sulfonyl)-4-oxo-1,4-dihydro-quinoline-3-carboxylic acid 2-methoxy-benzylamide] in Hams F-12 coon's modified media was added to the plate wells and incubated at room temperature for 60-120 min. 25 μL of HEPES-PBS -I buffer (10 mM HEPES, 1 mM MgCl2, 3 mM KCl, 1 mM CaCl2, 150 mM NaI) was then added and fluorescence quench curves (Excitation 500 nm/Emission 540 nm; exposure 136 ms) were immediately recorded on an FDSS-6000 plate reader (Hamamatsu). Quench rates were derived from least squares fitting of the data as described by Sui et al. (2010).

T1 sequence (P13569 with tags, fused parts or gaps DEL508-508): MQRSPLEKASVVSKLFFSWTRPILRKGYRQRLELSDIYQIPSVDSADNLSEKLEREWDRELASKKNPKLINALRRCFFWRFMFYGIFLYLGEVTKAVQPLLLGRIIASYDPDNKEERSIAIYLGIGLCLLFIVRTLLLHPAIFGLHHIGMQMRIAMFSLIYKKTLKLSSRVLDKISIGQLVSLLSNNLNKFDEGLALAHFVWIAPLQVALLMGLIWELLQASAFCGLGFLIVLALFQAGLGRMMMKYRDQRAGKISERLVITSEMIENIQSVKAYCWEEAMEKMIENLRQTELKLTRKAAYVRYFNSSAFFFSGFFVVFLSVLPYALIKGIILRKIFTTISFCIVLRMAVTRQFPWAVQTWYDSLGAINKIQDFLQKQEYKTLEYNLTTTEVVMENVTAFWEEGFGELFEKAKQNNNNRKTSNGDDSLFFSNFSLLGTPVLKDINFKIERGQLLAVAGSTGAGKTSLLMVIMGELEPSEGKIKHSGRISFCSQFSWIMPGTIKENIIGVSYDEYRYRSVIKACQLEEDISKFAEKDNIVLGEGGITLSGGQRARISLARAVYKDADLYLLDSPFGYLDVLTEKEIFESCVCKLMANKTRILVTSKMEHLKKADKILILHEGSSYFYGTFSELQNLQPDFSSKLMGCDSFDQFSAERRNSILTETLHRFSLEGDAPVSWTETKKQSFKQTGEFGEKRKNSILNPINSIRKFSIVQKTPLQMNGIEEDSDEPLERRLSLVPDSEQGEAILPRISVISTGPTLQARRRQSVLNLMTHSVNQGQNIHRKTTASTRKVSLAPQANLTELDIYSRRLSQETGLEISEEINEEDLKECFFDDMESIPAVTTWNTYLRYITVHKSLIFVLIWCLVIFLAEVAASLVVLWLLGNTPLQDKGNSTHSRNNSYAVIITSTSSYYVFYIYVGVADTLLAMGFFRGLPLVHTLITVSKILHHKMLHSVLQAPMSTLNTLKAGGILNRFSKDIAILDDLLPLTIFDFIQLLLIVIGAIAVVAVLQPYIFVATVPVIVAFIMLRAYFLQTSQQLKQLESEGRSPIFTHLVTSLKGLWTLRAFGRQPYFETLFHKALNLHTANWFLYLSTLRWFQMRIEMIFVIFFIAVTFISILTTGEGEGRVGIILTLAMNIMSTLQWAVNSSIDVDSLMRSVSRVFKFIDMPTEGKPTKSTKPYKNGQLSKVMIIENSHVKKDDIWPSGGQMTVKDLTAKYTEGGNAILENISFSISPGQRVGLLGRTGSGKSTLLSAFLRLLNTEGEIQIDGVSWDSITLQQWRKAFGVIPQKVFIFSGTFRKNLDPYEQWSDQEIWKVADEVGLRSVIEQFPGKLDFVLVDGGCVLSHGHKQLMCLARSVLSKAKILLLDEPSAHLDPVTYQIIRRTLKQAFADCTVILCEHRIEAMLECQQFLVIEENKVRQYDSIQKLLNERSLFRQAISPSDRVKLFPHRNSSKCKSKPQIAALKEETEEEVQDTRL

## O=S(=O)(c1ccc2c(c1)OCO2)N1CCC(n2c(-c3ccccc3Cl)nc3cccnc32)CC1 [Example 1, 3-(1-(Benzo[d][1,3]dioxol-5-ylsulfonyl)piperidin-4-yl)-2-(2-chlorophenyl)-3H-imidazo[4,5-b]pyridine]
  Emax: 30 to 80%
  EC50: < 10 µM

## Cc1ccc2nc(-c3ccccc3Cl)n(C3CCN(S(=O)(=O)c4ccc5c(c4)OCO5)CC3)c2n1 [Example 2]
  Emax: 30 to 80%
  EC50: < 10 µM

## COc1ccc(S(=O)(=O)N2CCC(n3c(-c4ccccc4)nc4ccc(C)nc43)CC2)cc1Cl [Example 3, 3-(1-((3-Chloro-4-methoxyphenyl)sulfonyl)piperidin-4-yl)-5-methyl-2-phenyl-3H-imidazo[4,5-b]pyridine]
  Emax: 30 to 80%
  EC50: < 10 µM

## CCc1ccc(S(=O)(=O)N2CCC(n3c(-c4ccccc4)nc4cccnc43)CC2)cc1 [Example 4, 3-(1-((4-Ethylphenyl)sulfonyl)piperidin-4-yl)-2-phenyl-3H-imidazo[4,5b]pyridine]
  Emax: 30 to 80%
  EC50: > 20 µM

## O=S(=O)(c1ccc2c(c1)OCO2)N1CCC(n2c(-c3ccccc3)nc3cccnc32)CC1 [Example 5, 3-(1-(Benzo[d][1,3]dioxol-5-ylsulfonyl)piperidin-4-yl)-2-phenyl-3H-imidazo[4,5-b]pyridine]
  Emax: 30 to 80%
  EC50: < 10 µM

## COc1ccc(S(=O)(=O)N2CCC(n3c(-c4ccccc4Cl)nc4cccnc43)CC2)cc1Cl [Example 6, 3-(1-((3-Chloro-4-methoxyphenyl)sulfonyl)piperidin-4-yl)-2-(2-chlorophenyl)-3H-imidazo[4,5-b]pyridine]
  Emax: 30 to 80%
  EC50: < 10 µM

## Cc1ccc2nc(-c3ccccc3Cl)n(C3CCN(S(=O)(=O)c4ccc(C)c(Cl)c4)CC3)c2n1 [Example 7, 3-(1-((3-Chloro-4-methylphenyl)sulfonyl)piperidin-4-yl)-2-(2-chlorophenyl)-5-methyl-3H-imidazo[4,5-b]pyridine]
  Emax: 30 to 80%
  EC50: < 10 µM

## COc1ccc(S(=O)(=O)N2CCC(n3c(-c4ccccc4Cl)nc4ccc(C)nc43)CC2)cc1F [Example 8, 2-(2-Chlorophenyl)-3-(1-((3-fluoro-4-methyoxyphenyl)sulfonyl)piperidin-4-yl)-5-methyl-3H-imidazo[4,5-b]pyridine]
  Emax: 30 to 80%
  EC50: < 10 µM

## COc1ccc(S(=O)(=O)N2CCC(n3c(-c4ccccc4O)nc4cccnc43)CC2)cc1Cl [Example 9, 2-(3-(1-((3-Chloro-4-methoxyphenyl)sulfonyl)piperidin-4-yl)-3H-imidazo[4,5-b]pyridin-2-yl)phenol]
  Emax: 30 to 80%
  EC50: < 10 µM

## Cc1ccc(S(=O)(=O)N2CCC(n3c(-c4ccccc4Cl)nc4cccnc43)CC2)cc1Cl [Example 10, 3-(1-((3-Chloro-4-methylphenyl)sulfonyl)piperidin-4-yl)-2-(2-chlorophenyl)-3H-imidazo[4,5-b]pyridine]
  Emax: 30 to 80%
  EC50: < 10 µM

## COc1ccc(S(=O)(=O)N2CCC(n3c(-c4ccccc4F)nc4cccnc43)CC2)cc1Cl [Example 11, 3-(1-((3-Chloro-4-methoxyphenyl)sulfonyl)piperidin-4-yl)-2-(2-fluorophenyl)-3H-imidazo[4,5-b]pyridine]
  Emax: 30 to 80%
  EC50: < 10 µM

## COc1ccc(S(=O)(=O)N2CCC(n3c(-c4ccc(Cl)cc4Cl)nc4cccnc43)CC2)cc1Cl [Example 12, 3-(1-((3-Chloro-4-methoxyphenyl)sulfonyl)piperidin-4-yl)-2-(2,4-dichlorophenyl)-3H-imidazo[4,5-b]pyridine]
  Emax: 10 to 30%
  EC50: < 10 µM

## Cc1ccc2nc(-c3ccncc3Cl)n(C3CCN(S(=O)(=O)c4ccc5c(c4)OC(F)(F)O5)CC3)c2n1 [Example 13, 2-(3-Chloropyridin-4-yl)-3-(1-((2,2-difluorobenzo[d][1,3]dioxol-5-yl)sulfonyl)piperidin-4-yl)-5-methyl-3H-imidazo[4,5-b]pyridine]
  Emax: 30 to 80%
  EC50: < 10 µM

## Cc1ccc2nc(-c3ccncc3Cl)n(C3CCN(S(=O)(=O)c4ccc5c(c4)OCO5)CC3)c2n1 [Example 14, 3-(1-(Benzo[d][1,3]dioxol-5-ylsulfonyl)piperidin-4-yl)-2-(3-chloropyridin-4-yl)-5-methyl-3H-imidazo[4,5-b]pyridine]
  Emax: 10 to 30%
  EC50: > 20 µM

## Cc1ccc2nc(-c3cccnc3Cl)n(C3CCN(S(=O)(=O)c4ccc5c(c4)OC(F)(F)O5)CC3)c2n1 [Example 15, 2-(2-Chloropyridin-3-yl)-3-(1-((2,2-difluorobenzo[d][1,3]dioxol-5-yl)sulfonyl)piperidin-4-yl)-5-methyl-3H-imidazo[4,5-b]pyridine]
  Emax: 30 to 80%
  EC50: < 10 µM

## COc1ccc(S(=O)(=O)N2CCC(n3c(-c4ccccc4)nc4cccnc43)CC2)cc1Cl [Example 16]
  Emax: > 80%
  EC50: 10 to 20 µM

## Cc1ccc(S(=O)(=O)N2CCC(n3c(-c4ccccc4)nc4cccnc43)CC2)cc1 [Example 17]
  Emax: 30 to 80%
  EC50: < 10 µM

## COc1ccc(S(=O)(=O)N2CCC(n3c(-c4ccccc4)nc4cccnc43)CC2)cc1F [Example 18]
  Emax: 30 to 80%
  EC50: < 10 µM

## COc1ccc(S(=O)(=O)N2CCC(n3c(-c4ccccc4)nc4cccnc43)CC2)cc1 [Example 19]
  Emax: 30 to 80%
  EC50: < 10 µM

## Cc1ccc(S(=O)(=O)N2CCC(n3c(-c4ccccc4)nc4cccnc43)CC2)cc1Cl [Example 20]
  Emax: 30 to 80%
  EC50: < 10 µM

## COc1ccc(C(=O)N2CCC(n3c(-c4ccccc4)nc4cccnc43)CC2)cc1Cl [Example 21]
  Emax: 10 to 30%
  EC50: > 20 µM

## COc1ccc(S(=O)(=O)N2CCC(n3c(-c4cccc(Cl)c4)nc4cccnc43)CC2)cc1Cl [Example 22]
  Emax: 30 to 80%
  EC50: < 10 µM

## COc1ccc(S(=O)(=O)N2CCC(n3c(-c4cccc(C)c4)nc4cccnc43)CC2)cc1Cl [Example 23]
  Emax: > 80%
  EC50: < 10 µM

## COc1ccc(S(=O)(=O)N2CCC(n3c(-c4ccc(C)cc4)nc4cccnc43)CC2)cc1Cl [Example 24]
  Emax: 30 to 80%
  EC50: < 10 µM

## COc1ccc(S(=O)(=O)N2CCC(n3c(C4CCCC4)nc4cccnc43)CC2)cc1Cl [Example 25]
  Emax: 30 to 80%
  EC50: < 10 µM

## COc1ccc(S(=O)(=O)N2CCC(n3c(-c4ccccc4)nc4cc(C)cnc43)CC2)cc1Cl [Example 26]
  Emax: 30 to 80%
  EC50: < 10 µM

## COc1ccc(S(=O)(=O)N2CCC(n3c(-c4cccnc4)nc4cccnc43)CC2)cc1Cl [Example 27]
  Emax: 30 to 80%
  EC50: < 10 µM

## COc1ccc(S(=O)(=O)N2CCC(n3c(-c4ccncc4)nc4cccnc43)CC2)cc1Cl [Example 28]
  Emax: 30 to 80%
  EC50: < 10 µM

## COc1ccc(S(=O)(=O)N2CCC(n3c(-c4ccc(Cl)cc4)nc4cccnc43)CC2)cc1Cl [Example 29]
  Emax: 10 to 30%
  EC50: < 10 µM

## COc1ccc(S(=O)(=O)N2CCC(n3c(-c4ccccc4C)nc4cccnc43)CC2)cc1Cl [Example 30]
  Emax: 30 to 80%
  EC50: < 10 µM

## COc1ccc(S(=O)(=O)N2CCC(n3c(C4CCCCC4)nc4cccnc43)CC2)cc1Cl [Example 31]
  Emax: 30 to 80%
  EC50: < 10 µM

## COc1ccc(S(=O)(=O)N2CCC(n3c(-c4cnc[nH]4)nc4cccnc43)CC2)cc1Cl [Example 32]
  Emax: 30 to 80%
  EC50: > 20 µM
